Laboratory results reported in US11992473B2, “Compositions and methods for diagnosis and treatment of conditions related to the quality of aging and longevity” (Epitracker, Inc., priority 2018, dated 2024).

Legend:
Format in all cases: cell-based, human
[1] = tested on: Venular endothelial cells, peripheral blood mononuclear cells; experiment: BioMAP Diversity PLUS LPS system (Th1 type chronic inflammation, monocyte activation); settings: for Significant log10 reduction compared to nontreated controls: Secreted prostaglandin E2 (PGE2): LPS system; for secretion of prostaglandin E2 (PGE2): human cell system mimicking T-cell and monocyte driven chronic inflammation and cardiovascular diseases (FIG. 4)
Procedure: (§1) This study examined activities of small molecules discovered in dolphin serum that had protective profiles against diseases of aging which can impact quality of life and longevity. These molecules were tested across 12 human primary cell-based systems as part of DiscoverX's BioMAP Diversity Plus program. These systems are designed to model complex human tissue and disease biology of the vasculature, skin, lung, and inflammatory tissues. Quantitative measurements of biomarker activities across this broad panel, along with comparative analysis of biological activities of known bioactive agents were used to predict and compare the efficacy and function of the four compounds. Compounds were tested at four concentrations (740 nm and 2.2, 6.7 and 20 μM).
(§2) BioMAP panels consist of human primary cell-based systems designed to model different aspects of the human body in an in vitro format. The 12 systems in the Diversity PLUS panel allow test agent characterization in an unbiased way across a broad set of systems modeling various human disease states. BioMAP systems are constructed with one or more primary cell types from healthy human donors, with stimuli (such as cytokines or growth factors) added to capture relevant signaling networks that naturally occur in human tissue or pathological conditions. Vascular biology is modeled in both a Th1 (3C system) and a Th2 (4H system) inflammatory environment, as well as in a Th1 inflammatory state specific to arterial smooth muscle cells (CASM3C system). Additional systems recapitulate aspects of the systemic immune response including monocyte-driven Th1 inflammation (LPS system) or T cell stimulation (SAg system), chronic Th1 inflammation driven by macrophage activation (lMphg system) and the T cell-dependent activation of B cells that occurs in germinal centers (BT system). The BE3C system (Th1) and the BF4T system (Th2) represent airway inflammation of the lung, while the MyoF system models myofibroblast-lung tissue remodeling. Lastly, skin biology is addressed in the KF3CT system modeling Th1 cutaneous inflammation and the HDF3CGF system modeling wound healing.
(§3) Each test agent generates a signature BioMAP profile that is created from the changes in protein biomarker readouts within individual system environments. Biomarker readouts (7-17 per system) are selected for therapeutic and biological relevance, are predictive for disease outcomes or specific drug effects and are validated using agents with known mechanism of action (MoA). Each readout is measured quantitatively by immune-based methods that detect protein (e.g., ELISA) or functional assays that measure proliferation and viability. BioMAP readouts are diverse and include cell surface receptors, cytokines, chemokines, matrix molecules and enzymes.
(§4) The Diversity PLUS panel allows test agent characterization in an unbiased way across a broad set of systems modeling various human disease states. These systems are designed to model complex human tissue and disease biology of the vasculature, skin, lung, and inflammatory tissues.
(§5) BioMAP systems are constructed with one or more primary cell types from healthy human donors, with stimuli (such as cytokines or growth factors) added to capture relevant signaling networks that naturally occur in human tissue or pathological conditions. Vascular biology is modeled in both a Th1 (3C system) and a Th2 (4H system) inflammatory environment, as well as in a Th1 inflammatory state specific to arterial smooth muscle cells (CASM3C system). Additional systems recapitulate aspects of the systemic immune response including monocyte-driven Th1 inflammation (LPS system) or T cell stimulation (SAg system), chronic Th1 inflammation driven by macrophage activation (lMphg system) and the T cell-dependent activation of B cells that occurs in germinal centers (BT system).

[2] = tested on: Venular endothelial cells, peripheral blood mononuclear cells; experiment: BioMAP Diversity PLUS SAg system (T cell stimulation, Th1 type chronic inflammation); settings: human cell system mimicking T-cell driven chronic inflammation and autoimmune diseases; concentrations ranging from 740 nm to 6.7 μM (FIG. 2)
Procedure: as §1, §2
as §3, with “enzymes. In total, the Diversity PLUS panel contains 148 biomarker readouts that capture biological changes that occur within the physiological context of the particular BioMAP system. Specific BioMAP activities have been correlated to in vivo biology, and multiparameter BioMAP profiles have been used to distinguish compounds based on MoA and target selectivity across diverse physiological systems.” for “enzymes.”
(§6) The Diversity PLUS panel allows test agent characterization in an unbiased way across a broad set of systems modeling various human disease states. These systems are designed to model complex human tissue and disease biology of the vasculature, skin, lung, and inflammatory tissues. Quantitative measurements of 148 biomarker activities across this broad panel, along with comparative analysis of biological activities from known bioactive agents, were used to predict and compare the efficacy and function of each selected compound at four concentrations (740 nm and 2.2, 6.7 and 20 μM). […]

[3] = tested on: Coronary artery smooth muscle cells; experiment: BioMAP Diversity PLUS CASM3C system (Th1 type vascular inflammation); settings: for Significant log10 reduction compared to nontreated controls: Vascular cell adhesion molecule 1 (VCAM-1): CASM3C system
Procedure: as §1, §2, §3, §4, §5

[4] = tested on: Dermal fibroblasts; experiment: BioMAP Diversity PLUS HDF3CGF system (wound healing and matrix/tissue remodeling)
Procedure: as §1, §2, §3, §4, §5

[5] = tested on: Lung fibroblasts; experiment: BioMAP Diversity PLUS MyoF system (myofibroblast differentiation and tissue remodeling)
Procedure: as §1, §2
as §3, with “enzymes. In total, the Diversity PLUS panel contains 148 biomarker readouts that capture biological changes that occur within the physiological context of the particular BioMAP system. Specific BioMAP activities have been correlated to in vivo biology, and multiparameter BioMAP profiles have been used to distinguish compounds based on MoA and target selectivity across diverse physiological systems.” for “enzymes.”
as §6

[6] = tested on: Peripheral blood mononuclear cells, B cells; experiment: BioMAP Diversity PLUS BT system (T cell dependent B cell activation); settings: BT system
Procedure: as §1, §2, §3, §4, §5

[7] = tested on: Bronchial epithelial cells, dermal fibroblasts; experiment: BioMAP Diversity PLUS BF4T system (Th2 type lung inflammation)
Procedure: as §1, §2
as §3, with “enzymes. In total, the Diversity PLUS panel contains 148 biomarker readouts that capture biological changes that occur within the physiological context of the particular BioMAP system. Specific BioMAP activities have been correlated to in vivo biology, and multiparameter BioMAP profiles have been used to distinguish compounds based on MoA and target selectivity across diverse physiological systems.” for “enzymes.”
as §6

[8] = tested on: Bronchial epithelial cells; experiment: BioMAP Diversity PLUS BE3C system (Th1 type lung inflammation)
Procedure: as §1, §2
as §3, with “enzymes. In total, the Diversity PLUS panel contains 148 biomarker readouts that capture biological changes that occur within the physiological context of the particular BioMAP system. Specific BioMAP activities have been correlated to in vivo biology, and multiparameter BioMAP profiles have been used to distinguish compounds based on MoA and target selectivity across diverse physiological systems.” for “enzymes.”
as §6

[9] = tested on: Macrophages, venular endothelial cells; experiment: BioMAP Diversity PLUS lMphg system (Th1 type chronic inflammation, macrophage activation); settings: /Mphg system
Procedure: as §1, §2
as §3, with “enzymes. In total, the Diversity PLUS panel contains 148 biomarker readouts that capture biological changes that occur within the physiological context of the particular BioMAP system. Specific BioMAP activities have been correlated to in vivo biology, and multiparameter BioMAP profiles have been used to distinguish compounds based on MoA and target selectivity across diverse physiological systems.” for “enzymes.”
as §6

Compound: CS(=O)(=O)CC[C@H](N)C(=O)O [Methionine sulfone]
- Significant log10 reduction compared to nontreated controls: Secreted prostaglandin E2 (PGE2) ([1]; 0.7 μM): −0.12 log10
- Significant log10 reduction compared to nontreated controls: Secreted prostaglandin E2 (PGE2) ([1]; 2.2 μM): −0.08 log10
- secretion of prostaglandin E2 (PGE2) [1]: lowered
- T cell proliferation [2]: decreased
- Significant log10 reduction compared to nontreated controls: Vascular cell adhesion molecule 1 (VCAM-1) ([3]; 0.7 μM): −0.10 log10
- Significant log10 reduction compared to nontreated controls: Vascular cell adhesion molecule 1 (VCAM-1) ([3]; 2.2 μM): −0.09 log10
- Significant log10 reduction compared to nontreated controls: Monocyte chemoattractant protein 1 (MCP-1) ([4]; HDF3CGF system, 6.7 μM): −0.24 log10
- decorin ([4]; human cell system mimicking wound healing, remodeling, fibrosis and chronic inflammation (FIG. 7)): inhibitory activity
- Significant log10 reduction compared to nontreated controls: Decorin ([5]; 6.7 μM): −0.07 log10
- Significant log10 reduction compared to nontreated controls: Decorin ([5]; 20.0 μM): −0.11 log10

Compound: O=C(O)c1cc(O)c2cccc(O)c2n1 [Xanthurenate]
- Significant log10 reduction compared to nontreated controls: Secreted prostaglandin E2 (PGE2) ([1]; 6.7 μM): −0.16 log10
- Significant log10 reduction compared to nontreated controls: Secreted prostaglandin E2 (PGE2) ([1]; 20.0 μM): −0.09 log10
- secretion of prostaglandin E2 (PGE2) [1]: lowered
- Significant log10 reduction compared to nontreated controls: Secreted interleukin 6 (IL-6) ([6]; 20.0 μM): −0.13 log10
- Significant log10 reduction compared to nontreated controls: Secreted tumor necrosis factor alpha (TNFα) ([6]; 20.0 μM): −0.19 log10
- IL-6 ([3]; human cell system mimicking cardiovascular inflammation (FIG. 6)): lowered
- interleukin 8 (IL-8) ([4]; human cell system mimicking wound healing, remodeling, fibrosis and chronic inflammation (FIG. 8)): inhibitory activity

Compound: lignoceroylcarnitine [Lignoceroylcarnitine (C24)]
- Significant log10 reduction compared to nontreated controls: B cell proliferation ([6]; 0.7 μM): −0.15 log10
- Significant log10 reduction compared to nontreated controls: B cell proliferation ([6]; 2.2 μM): −0.09 log10
- Significant log10 reduction compared to nontreated controls: Secreted tumor necrosis factor alpha (TNFα) ([6]; 2.2 μM): −0.10 log10
- Significant log10 reduction compared to nontreated controls: B cell proliferation ([6]; 6.7 μM): −0.09 log10
- Significant log10 reduction compared to nontreated controls: Secreted interleukin 2 (IL-2) ([6]; 6.7 μM): −0.11 log10
- Significant log10 reduction compared to nontreated controls: B cell proliferation ([6]; 20.0 μM): −0.07 log10
- Significant log10 reduction compared to nontreated controls: Secreted interleukin 6 (IL-6) ([6]; 20.0 μM): −0.13 log10
- Significant log10 reduction compared to nontreated controls: Secreted interleukin 17A (IL-17A) ([6]; 20.0 μM): −0.25 log10
- Significant log10 reduction compared to nontreated controls: Keratin 8/18 ([7]; 0.7 μM): −0.07 log10
- Significant log10 reduction compared to nontreated controls: Keratin 8/18 ([7]; 2.2 μM): −0.07 log10
- Significant log10 reduction compared to nontreated controls: Keratin 8/18 ([7]; 6.7 μM): −0.09 log10
- Significant log10 reduction compared to nontreated controls: Keratin 8/18 ([7]; 20.0 μM): −0.11 log10
- Significant log10 reduction compared to nontreated controls: Interferon-inducible T cell alpha chemoattractant (I-TAC)/CXCL11 ([8]; 0.7 μM): −0.05 log10
- Significant log10 reduction compared to nontreated controls: Interferon-inducible T cell alpha chemoattractant (I-TAC)/CXCL11 ([8]; 2.2 μM): −0.12 log10
- Significant log10 reduction compared to nontreated controls: Alpha smooth muscle actin (αSMA) ([5]; 0.7 μM): −0.08 log10
- Significant log10 reduction compared to nontreated controls: Alpha smooth muscle actin (αSMA) ([5]; 2.2 μM): −0.13 log10
- Significant log10 reduction compared to nontreated controls: Alpha smooth muscle actin (αSMA) ([5]; 6.7 μM): −0.18 log10
- Significant log10 reduction compared to nontreated controls: Alpha smooth muscle actin (αSMA) ([5]; 20.0 μM): −0.20 log10
- Significant log10 reduction compared to nontreated controls: Monocyte chemoattractant protein 1 (MCP-1) ([9]; 2.2 μM): −0.29 log10
- Significant log10 reduction compared to nontreated controls: Monocyte chemoattractant protein 1 (MCP-1) ([9]; 6.7 μM): −0.16 log10
- Significant log10 reduction compared to nontreated controls: Monocyte chemoattractant protein 1 (MCP-1) ([9]; 20.0 μM): −0.11 log10
